Assay results published in patent publication US9458187B2, “Methods for treatment of inflammatory conditions using S-[4-(3-fleuro-3-methylbutyryloxy)but-2-ynyl]6α, 9α-difluoro-17α-(furan-2-yl) carbonyloxy-11β-hydroxy-16α-methyl-3-oxoandrosta-1,4-diene-17β-carbothioate” (Sun Pharma Advanced Research Company Limited, priority 2013, dated 2016).

What was measured:
[1] = system: cotton pellet granuloma; assay: Cotton pellet granuloma test; type: in vivo, SD rats
Method: SD rats were used for assessing anti-inflammatory activity of test compound using cotton pellet granuloma method. Sterilized cotton pellets weighing 20 mg were prepared. Test compounds were dissolved in acetone so as to get the required quantity for each cotton pellet in 500 μl. Different pellets were impregnated with 500 μl of acetone to contain required quantity of test compounds and allowed to dry. Vehicle control pellets were impregnated with 500 μl acetone.
Rats were made into different groups. Two cotton pellets were surgically implanted into the scapular region of each rat. On sixth day of such implantation, pellets along with granuloma were taken out. Thymus gland was also separated from each animal and weighed. The pellets with granuloma were dried for 20 hrs at 60° C. and weighed. Mean weights of dry granuloma and thymus, body weight gain/100 g body weights were calculated.

[2] = system: croton oil ear edema; assay: Croton oil ear edema; type: in vivo, Mice (male, CD-1); conditions: 1 μg, applied to ear 2 hrs before croton oil
Method: Mice (male, CD-1) were made into different groups. A method similar to one reported in the literature was used. Test compounds were dissolved in pyridine-water-acetone (4:2:14) solution 10 μl of this solution of compound or vehicle solution was applied to the left ear of the mice. The right ear of each mouse was applied simultaneously with 10 μl of pyridine: water: acetone (4:2:14) solution. After 2 hrs of compound or vehicle application, 10 μl of croton oil solution was applied to the left ear of all animals. After 6 hr of croton oil treatment the animals were sacrificed; ears were excised and weighed separately.

[3] = system: intraocular pressure (IOP); assay: Effect on intraocular pressure (IOP); type: in vivo, rabbits; conditions: 40 μl ophthalmic, 10 instillations daily for 10 days; FIG. 4
Method: IOP measurement was performed 1 hr after instillation of the last dose (results are represented in FIG. 4—Effect of ophthalmic steroids on-IOP in rabbits).

[4] = system: Sephadex-induced lung edema; assay: Sephadex-induced lung edema; type: in vivo, SD rats; conditions: Rattus norvegicus; i.t., 24 hrs and 2 hrs prior to Sephadex; read-out: ED50 Lung edema inhibition
Method: (§1) Sephadex® G-200 was prepared in sterile saline (10 mg/ml) and allowed to swell for at least 3 days at room temperature. Test compounds were administered intratracheally at 24 hrs and 2 hrs prior to intratracheal administration of Sephadex® (5 mg/kg) under light ether anesthesia. Vehicle control animals were administered vehicle instead of Sephadex®. At 24 hr after Sephadex® instillation, lung and thymus were excised from individual animals and weighed. Wet weights of lungs and thymus were corrected for 100 g of initial body weight. The percentage increase in lung weight caused by Sephadex® and its inhibitions by the compounds, were calculated. The percentage inhibitions of thymus compared to vehicle control group were also calculated

[5] = Sephadex-induced lung edema; type: in vivo, SD rats; conditions: Sprague-Dawley, rat, thymus, other: intratracheal; i.t., 24 hrs and 2 hrs prior to Sephadex; read-out: ED50 Thymus involution
Method: as §1

[6] = system: liver glycogen deposition; assay: Liver glycogen deposition; type: in vivo, Male Sprague Dawley rats; conditions: 3 mg/kg intratracheal, 2 doses 24 hrs apart, adrenalectomized rats
Method: Male Sprague Dawley rats, weighing 190-220 g were bilaterally adrenalectomized and maintained on 0.9% saline solution throughout the experiment. On day 5th and 6th of adrenalectomy, animals were made into different groups, test compounds prepared in cold saline (sonicated for 30 min) were instilled intratracheally 2 doses @3 mg/kg, 24 hrs apart. At 15 hrs after the last treatment, animals were sacrificed and livers were excised and weighed. The glycogen content of the livers was determined by anthrone method. Briefly, a weighed quantity of liver tissue was homogenized with 5% trichloroacetic acid, supernatant mixed with ethanol and kept overnight for precipitation. The glycogen thus extracted was estimated as glucose generated after acid hydrolysis by addition of anthrone reagent at 620 nm. Glycogen content was expressed as mg/100 g liver.

[7] = target: T1, Progesterone receptor (Homo sapiens, UniProt P06401); assay: Steroidal receptor binding screen, progesterone (human)
T1 construct: host or cells: insect Sf9
T1 sequence (P06401 1-933): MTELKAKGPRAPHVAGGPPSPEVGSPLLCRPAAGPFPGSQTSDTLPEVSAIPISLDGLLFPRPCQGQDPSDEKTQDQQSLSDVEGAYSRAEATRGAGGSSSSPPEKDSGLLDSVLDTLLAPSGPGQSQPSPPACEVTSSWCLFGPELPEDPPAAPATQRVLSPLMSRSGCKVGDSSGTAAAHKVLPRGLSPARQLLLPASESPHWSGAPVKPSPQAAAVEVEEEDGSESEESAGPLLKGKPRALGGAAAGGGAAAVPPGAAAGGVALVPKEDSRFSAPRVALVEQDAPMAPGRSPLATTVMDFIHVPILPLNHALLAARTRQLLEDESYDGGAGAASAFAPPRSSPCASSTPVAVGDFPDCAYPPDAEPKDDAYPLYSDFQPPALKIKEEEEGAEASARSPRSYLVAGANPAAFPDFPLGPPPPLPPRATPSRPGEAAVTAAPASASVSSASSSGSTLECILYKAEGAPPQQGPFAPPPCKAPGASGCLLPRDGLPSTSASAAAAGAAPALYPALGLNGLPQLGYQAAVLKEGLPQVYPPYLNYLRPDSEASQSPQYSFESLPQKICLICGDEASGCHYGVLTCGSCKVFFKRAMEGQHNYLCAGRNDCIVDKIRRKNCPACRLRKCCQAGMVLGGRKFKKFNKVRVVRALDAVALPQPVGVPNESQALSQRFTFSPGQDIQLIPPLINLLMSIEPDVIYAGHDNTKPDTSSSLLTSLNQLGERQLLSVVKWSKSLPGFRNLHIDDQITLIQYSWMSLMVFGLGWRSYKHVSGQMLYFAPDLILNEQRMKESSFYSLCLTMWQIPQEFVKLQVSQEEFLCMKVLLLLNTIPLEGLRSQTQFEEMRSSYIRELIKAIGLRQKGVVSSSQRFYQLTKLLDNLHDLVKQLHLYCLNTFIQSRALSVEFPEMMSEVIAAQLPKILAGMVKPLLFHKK
Excerpt: For determination of binding to other related steroidal receptors by compound of the present invention cloned receptors from cells indicated in the parentheses were used: estrogen Erα/Erβ and progesterone (human recombinant insect Sf9), testosterone (human LnCAP) and aldosterone (Wistar rat kidney).

[8] = system: ovalbumin-induced increase in intranasal pressure; assay: Ovalbumin-induced increase in intranasal pressure; type: in vivo, guinea pigs; conditions: intranasal instillation 24 hr and 2 hr prior to ovalbumin challenge; FIG. 2
Method: Animals sensitized with ovalbumin as described above were used for experiments determining intranasal pressure. Intranasal instillation of compound of formula I, fluticasone propionate or placebo was done 24 hr and 2 hr prior to challenge with ovalbumin. The nasopharynx was catheterized with a PE cannula, one end of which was attached to pressure transducer and other to the nebulizer. Ovalbumin (5%) was nebulized into the nasal cavity for 10 min. The changes in intranasal pressure were recorded for following 45 min and differential pressure (dP) was calculated.

[9] = system: liver glycogen deposition; assay: Liver glycogen deposition; type: in vivo, Male Sprague Dawley rats; conditions: 3 mg/kg intratracheal, 2 doses 24 hrs apart, adrenalectomized rats; remark: listed apart in the source

With `C[C@@H]1CC2C3C[C@H](F)C4=CC(=O)C=C[C@]4(C)[C@@]3(F)[C@@H](O)C[C@]2(C)[C@@]1(OC(=O)c1ccco1)C(=O)SCC#CCOC(=O)CC(C)(C)F` (stereo partly drawn) [Formula I, S-[4-(3-Fluoro-3-methylbutyryloxy)but-2-ynyl]6α,9α-difluoro-17α-(furan-2-yl)carbonyloxy-11β-hydroxy-16α-methyl-3-oxoandrosta-1,4-diene-17β-carbothioate] the “Mean % Inhibition of Granuloma A” value ([1]; 100 mcg/pellet) was 58.13%, the “Thymus wt. (% Decrease) B” value ([1]; 100 mcg/pellet) was 4.67% and the “thymus involution and body weight gain (systemic side effect markers)” value ([1]; even at 100 mcg per pellet) was “insignificant”. The “Inhibition of ear edema (%)” value [2] was 75.5%, the “intraocular pressure (IOP)” value [3] was “insignificant (comparable to placebo)” and the ED50 [4] was 0.094 mg/kg. It also gave an ED50 at 24 h [5] of 8.7 mg/kg, a Glycogen content [6] of 10.68 mg/100 g liver and an IC50 [7] of 8.52 nM. For the same compound, the Ki [7] was 3.29 nM, the “inhibition of intranasal pressure” value [8] was “equivalent inhibition” and the “% Inhibition of thymus” value [9] was 26.15%.
